Experimental data: patent US20240182407A1, “QUINOLINE COMPOUND SALT OR CRYSTAL FORM, PREPARATION METHOD THEREFOR, AND APPLICATION THEREOF” (Nanjing Zenshine Pharmaceuticals Co., Ltd., priority 2021, published 2024)
Converted amounts (≈) assume the structure as drawn.

Tests used:
[1] = test system: SU-DHL-4; test: Proliferation of lymphoma cell line in vitro, SU-DHL-4; assay type: cell-based; conditions: Homo sapiens, read-out: absolute IC50 (AbsIC50), proliferation
[2] = test system: WSU-DLCL-2; test: Proliferation of lymphoma cell line in vitro, WSU-DLCL-2; assay type: cell-based; conditions: Homo sapiens, WSUDLCL2, read-out: absolute IC50 (AbsIC50), proliferation
[3] = test system: DoHH-2; test: Proliferation of lymphoma cell line in vitro, DoHH-2; assay type: cell-based; conditions: Homo sapiens, read-out: absolute IC50 (AbsIC50), proliferation
[4] = biological target: T1, PI3Kγ (Mus musculus, UniProt Q9JHG7); test: Akt phosphorylation in Raw264.7 cells stimulated by c5α (AlphaLISA); conditions: phosphorylation of Akt, read-out: IC50 PI3Kγ Cell-based
T1 construct: host or cells: Raw264.7 cells
Procedure: In addition, taking Sample 6 as an example, the inhibitory effects thereof on PI3Kα, PI3Kβ, PI3Kγ and PI3Kδ in corresponding cells were determined. The activity of PI3Kα was detected by the phosphorylation level of Akt in C2Cl2 cells stimulated by IGF-1, the activity of PI3Kβ was detected by the phosphorylation level of Akt in PC-3 cells stimulated by LPA, the activity of PI3Kγ was detected by the phosphorylation level of Akt in Raw264.7 cells stimulated by c5α, and the activity of PI3Kδ was detected by the phosphorylation level of Akt in Raji cells stimulated by IgM. The phosphorylation level of Akt in cells was determined by means of AlphaLISA technique from PerkinElemer.
The C2C12 cells, PC-3 cells, Raw264.7 cells and Raji cells were all purchased from ATCC.

[5] = test system: human-derived lymphoma DoHH-2 cell line; test: Human-derived lymphoma DoHH-2 subcutaneous xenograft in CB17/SCID female immunodeficient mice; assay type: in vivo, mouse; conditions: Day 24
Procedure: In Example 8, the anti-tumor effects of p-toluenesulfonate of Compound A at various dosages by intragastric administration on human-derived lymphoma DoHH-2 cell line subcutaneous transplantation CB17/SCID female immunodeficient mouse model were evaluated.
7-9-week-old CB17/SCID female immunodeficient mice were subcutaneously inoculated with […] DoHH-2 cells to establish a subcutaneous human lymphoma xenograft tumor model. When the average tumor volume in the mice reached 68 mm^3, the mice were randomly divided into groups and dosed on the day of grouping. The treatment method for each treatment group and vehicle control group was as follows:
p-toluenesulfonate of Compound A (Sample 6), given 100 mg/kg (p.o. QD) group, once daily, for 25 days (days 0-24);
p-toluenesulfonate of Compound A (Sample 6), given 30 mg/kg (p.o. QD) group, once daily, for 25 days (days 0-24);
positive treatment group (Duvelisib, purchased from Shanghai Lollane biological technology Co., Ltd.), given 50 mg/kg (p.o. BID) twice daily with an interval of 12 h, for 24 days; and
vehicle control group (5% DMSO/40% PEG400/55% water, by volume) (p.o. QD), given once daily, for 25 days (days 0-24).
There were 10 mice in each group, and all the mice were administered starting on the day of grouping (Day 0) and euthanized on Day 24 after grouping (Day 24). The efficacy was evaluated according to the tumor volume at the end point of the experiment.
The abbreviation p.o. stood for oral gavage, QD stood for once daily, and BID stood for twice daily.
The relative tumor inhibition rate (TGI) was calculated by the following formula: […]
T and C were respectively the average tumor volumes in the experimental group and the vehicle control group at a specific time point.

[6] = test system: mouse colorectal cancer CT26. WT cell; test: Mouse colorectal cancer CT26. WT cell subcutaneous transplantation tumor model; assay type: in vivo
Description: WT cell subcutaneous transplantation tumor model.

[7] = Solubility in simulated gastrointestinal fluids (SGF, FeSSIF, FaSSIF) at 37° C.; assay type: physicochemical; conditions: for Solubility: 37° C.; for Solubility / pH of filtrate: listed as Sample 5; for solubility at 30 min / solubility at 2 h / solubility at 24 h: 37 °C, thermodynamic from solid
Procedure: The solubilities of Compound A and p-toluenesulfonate (Sample 5, crystal form I) in simulated gastrointestinal fluids (SGF, FeSSIF and FaSSIF) at 37° C. were tested.
About 7.5 mg of Compound A and p-toluenesulfonate were separately added to 1.5 mL of three biological vehicles to prepare suspensions. All the suspensions were placed in a shaker at 37° C. and shaken at 200 rpm for 24 h, and about 0.5 mL was sampled separately at 0.5 h, 2 h and 24 h for filtration. The obtained filtrates were subjected to HPLC analysis and pH measurement, and the filter cakes were respectively measured by XRPD.

T1 sequence (Q9JHG7 whole entry): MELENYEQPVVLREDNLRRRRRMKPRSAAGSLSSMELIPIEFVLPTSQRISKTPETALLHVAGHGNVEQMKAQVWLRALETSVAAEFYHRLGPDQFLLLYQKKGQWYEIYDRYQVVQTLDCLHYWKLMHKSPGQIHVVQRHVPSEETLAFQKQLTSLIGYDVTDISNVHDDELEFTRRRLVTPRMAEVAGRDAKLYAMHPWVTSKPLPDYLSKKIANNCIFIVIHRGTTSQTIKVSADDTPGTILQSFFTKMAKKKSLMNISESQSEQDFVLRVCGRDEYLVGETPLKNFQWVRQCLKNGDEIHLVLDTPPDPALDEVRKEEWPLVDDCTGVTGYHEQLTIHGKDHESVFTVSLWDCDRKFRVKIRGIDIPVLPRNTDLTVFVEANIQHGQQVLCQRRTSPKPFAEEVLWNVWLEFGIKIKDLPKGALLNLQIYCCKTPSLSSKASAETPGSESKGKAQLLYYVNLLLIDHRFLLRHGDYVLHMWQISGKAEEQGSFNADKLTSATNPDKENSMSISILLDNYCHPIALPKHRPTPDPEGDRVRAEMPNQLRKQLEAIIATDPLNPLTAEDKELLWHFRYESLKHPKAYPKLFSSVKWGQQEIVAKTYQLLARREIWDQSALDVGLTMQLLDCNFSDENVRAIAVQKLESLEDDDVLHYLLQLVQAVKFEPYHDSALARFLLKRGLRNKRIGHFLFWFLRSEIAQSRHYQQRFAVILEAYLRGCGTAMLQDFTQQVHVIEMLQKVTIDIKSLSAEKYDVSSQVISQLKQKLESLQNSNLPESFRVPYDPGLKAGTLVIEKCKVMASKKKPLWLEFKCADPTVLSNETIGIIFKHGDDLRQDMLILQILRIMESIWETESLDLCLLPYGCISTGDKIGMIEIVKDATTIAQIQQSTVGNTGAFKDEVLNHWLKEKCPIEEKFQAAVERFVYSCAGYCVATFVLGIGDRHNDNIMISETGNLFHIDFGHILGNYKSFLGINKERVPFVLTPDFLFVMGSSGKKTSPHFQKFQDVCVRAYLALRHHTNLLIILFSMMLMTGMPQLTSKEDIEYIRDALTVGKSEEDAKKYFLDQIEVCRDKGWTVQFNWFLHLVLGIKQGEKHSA

- IC50 [1]: < 100 nM
- IC50 [2]: < 100 nM
- IC50 [3]: < 100 nM
- IC50 [4]: 29 nM
- Solubility ([7]; FaSSIF (pH 6.52), 30 min): 570 µg/mL (≈ 1.42 mM)
- Solubility ([7]; FaSSIF (pH 6.52), 2 h): 560 µg/mL (≈ 1.4 mM)
- Solubility ([7]; FaSSIF (pH 6.52), 24 h): 550 µg/mL (≈ 1.37 mM)
- pH of filtrate ([7]; FaSSIF (pH 6.52), 0.5 h): 6.27
- pH of filtrate ([7]; FaSSIF (pH 6.52), 2 h): 6.10
- pH of filtrate ([7]; FaSSIF (pH 6.52), 24 h): 5.38
- pH of filtrate ([7]; FeSSIF (pH 4.99), 0.5 h): 4.81
- pH of filtrate ([7]; FeSSIF (pH 4.99), 2 h): 4.80
- pH of filtrate ([7]; FeSSIF (pH 4.99), 24 h): 4.69
- solubility at 30 min ([7]; FeSSIF, pH 4.99, fessif, FeSSIF (pH 4.99), 30 min): 1310 µg/mL (≈ 3.27 mM)
- solubility at 2 h ([7]; FeSSIF, pH 4.99, fessif, FeSSIF (pH 4.99), 2 h): 2740 µg/mL (≈ 6.84 mM)
- solubility at 24 h ([7]; FeSSIF, pH 4.99, fessif, FeSSIF (pH 4.99), 24 h): 3570 µg/mL (≈ 8.92 mM)
- pH of filtrate ([7]; SGF (pH 1.21), 0.5 h): 1.05
- pH of filtrate ([7]; SGF (pH 1.21), 2 h): 1.10
- pH of filtrate ([7]; SGF (pH 1.21), 24 h): 1.11
- solubility at 30 min ([7]; SGF, pH 1.21, simulated gastric fluid, SGF (pH 1.21), 30 min): > 5440 µg/mL
- solubility at 2 h ([7]; SGF, pH 1.21, simulated gastric fluid, SGF (pH 1.21), 2 h): > 5400 µg/mL
- solubility at 24 h ([7]; SGF, pH 1.21, simulated gastric fluid, SGF (pH 1.21), 24 h): > 5350 µg/mL
Structure (SMILES): C[C@H](Nc1nc(N)nc(N)c1C#N)c1cc2ccc(F)cc2nc1-c1ccccn1 [p-toluenesulfonate of Compound A]
- average tumor volume ([5]; 30 mg/kg p.o. QD): 984.45 mm^3
- relative tumor inhibition rate (TGI) ([5]; 30 mg/kg p.o. QD): 54%
- average tumor volume ([5]; 100 mg/kg p.o. QD): 549.05 mm^3
- relative tumor inhibition rate (TGI) ([5]; 100 mg/kg p.o. QD): 75%
- effect on tumor volume growth [6]: significant inhibitory effect
